Results taken from PubChem BioAssay AID256 (DTP/NCI, 2004).
Several values for one entry are separate records, joined by “and”; a condition that tells them apart may be missing. Equal entries are not always repeated. Toxic doses and inconclusive results are not listed. The calls were made as follows: active = survival T/C of 150% or more; inactive = T/C below 125% in these data.

Tested on: CD2F1 mice, L1210 leukemia ip, survival T/C
Test: NCI In Vivo Anticancer Drug Screen. Data for tumor model L1210 Leukemia (intraperitoneal) in CD2F1 (CDF1) mice
Conditions: higher = longer survival
Summary of the method: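 Mice carrying a transplanted tumor received test compound or vehicle alone. The value is the measurement in the treated group divided by that in the vehicle-treated control group.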

[1] = endpoint: mean survival time, dose: 25.0 mg/kg/injection, schedule: Q01DX009 (ip), vehicle: saline with Tween-80
[2] = endpoint: mean survival time, dose: 50.0 mg/kg/injection, schedule: Q01DX009 (ip), vehicle: saline with Tween-80
[3] = endpoint: mean survival time, dose: 100.0 mg/kg/injection, schedule: Q04DX003 (ip), vehicle: saline with Tween-80
[4] = endpoint: mean survival time, dose: 100.0 mg/kg/injection, schedule: Q01DX001 (ip), vehicle: saline with Tween-80
[5] = endpoint: mean survival time, dose: 200.0 mg/kg/injection, schedule: Q01DX001 (ip), vehicle: saline with Tween-80
[6] = endpoint: mean survival time, dose: 400.0 mg/kg/injection, schedule: Q01DX001 (ip), vehicle: saline with Tween-80
[7] = endpoint: mean survival time, dose: 100.0 mg/kg/injection, schedule: Q01DX009 (ip), vehicle: saline with Tween-80
[8] = endpoint: mean survival time, dose: 200.0 mg/kg/injection, schedule: Q01DX009 (ip), vehicle: saline with Tween-80
[9] = endpoint: mean survival time, dose: 100.0 mg/kg/injection, schedule: Q01DX001 (ip), vehicle: saline
[10] = endpoint: mean survival time, dose: 200.0 mg/kg/injection, schedule: Q04DX003 (ip), vehicle: saline with Tween-80
[11] = endpoint: mean survival time, dose: 400.0 mg/kg/injection, schedule: Q04DX003 (ip), vehicle: saline with Tween-80
[12] = endpoint: mean survival time, dose: 400.0 mg/kg/injection, schedule: Q01DX009 (ip), vehicle: saline with Tween-80
[13] = endpoint: mean survival time, dose: 12.5 mg/kg/injection, schedule: Q01DX009 (ip), vehicle: saline with Tween-80
[14] = endpoint: mean survival time, dose: 200.0 mg/kg/injection, schedule: Q04DX002 (ip), vehicle: saline with Tween-80
[15] = endpoint: mean survival time, dose: 100.0 mg/kg/injection, schedule: Q04DX002 (ip), vehicle: saline with Tween-80

Measured: T/C

N#CCc1ccc(Cl)c(Cl)c1
inactive: [1] 102 % of control | endpoint: mean survival time, dose: 25.0 mg/kg/injection, schedule: Q04DX003 (ip), vehicle: saline with Tween-80 111 % of control | [2] 100 % of control | endpoint: mean survival time, dose: 50.0 mg/kg/injection, schedule: Q04DX003 (ip), vehicle: saline with Tween-80 94 % of control | [3] 102 % of control

C1OC1C1CO1 (stereo not drawn)
inactive: endpoint: mean survival time, dose: 1.25 mg/kg/injection, schedule: Q01DX009 (ip), vehicle: saline 97 % of control and 98 % of control | endpoint: mean survival time, dose: 2.5 mg/kg/injection, schedule: Q01DX009 (ip), vehicle: saline 95 % of control and 100 % of control | endpoint: mean survival time, dose: 5.0 mg/kg/injection, schedule: Q01DX009 (ip), vehicle: saline 96 % of control and 103 % of control | endpoint: mean survival time, dose: 10.0 mg/kg/injection, schedule: Q01DX009 (ip), vehicle: saline 98 % of control and 105 % of control | endpoint: mean survival time, dose: 20.0 mg/kg/injection, schedule: Q01DX009 (ip), vehicle: saline 103 % of control and 112 % of control | endpoint: mean survival time, dose: 40.0 mg/kg/injection, schedule: Q01DX009 (ip), vehicle: saline 108 % of control

S=c1sc2ccccc2n1CN1CCOCC1
inactive: endpoint: median survival time, dose: 12.5 mg/kg/injection, schedule: Q01DX009 (ip), vehicle: saline with Tween-80 97 % of control and 104 % of control | endpoint: median survival time, dose: 25.0 mg/kg/injection, schedule: Q01DX009 (ip), vehicle: saline with Tween-80 100 % of control | endpoint: median survival time, dose: 50.0 mg/kg/injection, schedule: Q01DX009 (ip), vehicle: saline with Tween-80 101 % of control and 106 % of control | endpoint: median survival time, dose: 100.0 mg/kg/injection, schedule: Q01DX009 (ip), vehicle: saline with Tween-80 101 % of control and 108 % of control | endpoint: median survival time, dose: 200.0 mg/kg/injection, schedule: Q01DX009 (ip), vehicle: saline with Tween-80 98 % of control and 100 % of control

CCC(CO)Nc1nc2c(c(=O)n(C)c(=O)n2C)n1C (stereo not drawn)
inactive: endpoint: mean survival time, dose: 12.5 mg/kg/injection, schedule: Q01DX005 (ip), vehicle: distilled water + Tween-80 101 % of control | endpoint: mean survival time, dose: 25.0 mg/kg/injection, schedule: Q01DX005 (ip), vehicle: distilled water + Tween-80 100 % of control | endpoint: mean survival time, dose: 50.0 mg/kg/injection, schedule: Q01DX005 (ip), vehicle: distilled water + Tween-80 101 % of control | endpoint: mean survival time, dose: 100.0 mg/kg/injection, schedule: Q01DX005 (ip), vehicle: distilled water + Tween-80 94 % of control | endpoint: mean survival time, dose: 200.0 mg/kg/injection, schedule: Q01DX005 (ip), vehicle: distilled water + Tween-80 101 % of control

FCCc1cccc(C(F)(F)F)c1
inactive: [4] 103 % of control | endpoint: mean survival time, dose: 100.0 mg/kg/injection, schedule: Q04DX003 (ip), vehicle: saline sonified 94 % of control | [5] 101 % of control | endpoint: mean survival time, dose: 200.0 mg/kg/injection, schedule: Q04DX003 (ip), vehicle: saline sonified 98 % of control | [6] 101 % of control | endpoint: mean survival time, dose: 400.0 mg/kg/injection, schedule: Q04DX003 (ip), vehicle: saline sonified 98 % of control

CN(C)/N=C/c1cccc(CC(O)(C(F)(F)F)C(F)(F)F)n1
inactive: [2] 94 % of control | [4] 105 % of control | [7] 96 % of control | [5] 100 % of control | [8] 97 % of control

[CH3][Sb]([CH3])([CH3])([Cl])[Cl]
inactive: endpoint: mean survival time, dose: 50.0 mg/kg/injection, schedule: Q04DX003 (ip), vehicle: saline 105 % of control | endpoint: mean survival time, dose: 100.0 mg/kg/injection, schedule: Q04DX003 (ip), vehicle: saline 101 % of control | endpoint: mean survival time, dose: 200.0 mg/kg/injection, schedule: Q04DX003 (ip), vehicle: saline 101 % of control

O=C(/C(=C/c1ccccc1)CN1CCOCC1)c1ccccc1
inactive: endpoint: mean survival time, dose: 25.0 mg/kg/injection, schedule: Q01DX009 (ip), vehicle: Klucel (hydroxypropylcellulose) (HPC) 101 % of control | endpoint: mean survival time, dose: 50.0 mg/kg/injection, schedule: Q01DX009 (ip), vehicle: Klucel (hydroxypropylcellulose) (HPC) 105 % of control | endpoint: mean survival time, dose: 100.0 mg/kg/injection, schedule: Q01DX009 (ip), vehicle: Klucel (hydroxypropylcellulose) (HPC) 91 % of control

COC1CCC2CCN(C)C(Cc3ccc(Oc4ccc(CC5C6CC(OC)CCC6CCN5C)cc4)cc3)C2C1 (stereo not drawn)
inactive: endpoint: mean survival time, dose: 1.56 mg/kg/injection, schedule: Q04DX002 (ip), vehicle: saline with Tween-80 90 % of control | endpoint: mean survival time, dose: 3.13 mg/kg/injection, schedule: Q04DX002 (ip), vehicle: saline with Tween-80 94 % of control

C[N+](C)(C)CCC[n+]1ccc(CCn2ccc3ccccc32)cc1
inactive: [9] 124 % of control

Cc1cc(-c2nnc(-c3ccc(O)c(C)c3)nn2)ccc1O
inactive: [3] 97 % of control | [10] 89 % of control | [11] 92 % of control

Cc1ccc(Sc2ccc([N+](=O)[O-])cc2)cc1
inactive: [7] 96 % of control | [3] 100 % of control | [8] 102 % of control | [10] 100 % of control | [12] 96 % of control | [11] 91 % of control

CCCCCCCCCCCCCCCCCC(=O)OC1C(CO)OC2C1Oc1nc(=N)ccn12 (stereo not drawn)
inactive: endpoint: mean survival time, dose: 200.0 mg/kg/injection, schedule: Q01DX009 (ip), vehicle: other 96 % of control
active: endpoint: mean survival time, dose: 12.5 mg/kg/injection, schedule: Q01DX009 (ip), vehicle: other 167 % of control | endpoint: mean survival time, dose: 25.0 mg/kg/injection, schedule: Q01DX009 (ip), vehicle: other 229 % of control | endpoint: mean survival time, dose: 50.0 mg/kg/injection, schedule: Q01DX009 (ip), vehicle: other 301 % of control | endpoint: mean survival time, dose: 100.0 mg/kg/injection, schedule: Q01DX009 (ip), vehicle: other 280 % of control

CC(=O)Nc1ccc(Nc2ccc(C(=C3C=CC(=[N+](C)CCC#N)C=C3)c3ccc(N(C)CCC#N)cc3)cc2)cc1
inactive: endpoint: mean survival time, dose: 12.0 mg/kg/injection, schedule: Q01DX009 (ip), vehicle: saline with Tween-80 107 % of control | [13] 107 % of control | [1] 105 % of control and 109 % of control | [14] 106 % of control

COc1cc2c(c(OC)c1OC)-c1ccc(SC)c(=O)cc1[C@@H](NC1OC(CO)C(O)C(O)C1O)CC2 (stereo partly drawn)
inactive: endpoint: mean survival time, dose: 3.13 mg/kg/injection, schedule: Q01DX009 (ip), vehicle: saline 117 % of control

O=C1C(C2CC3c4[nH]c5ccccc5c4CCN3C2=O)CC2c3[nH]c4ccccc4c3CCN12 (stereo not drawn)
inactive: [15] 93 % of control | [14] 93 % of control | endpoint: mean survival time, dose: 400.0 mg/kg/injection, schedule: Q04DX002 (ip), vehicle: saline with Tween-80 93 % of control

NC(=O)N/N=C1/CCCC2CCCCC12 (stereo not drawn)
inactive: endpoint: mean survival time, dose: 150.0 mg/kg/injection, schedule: Q04DX003 (ip), vehicle: saline with Tween-80 93 % of control | endpoint: mean survival time, dose: 300.0 mg/kg/injection, schedule: Q04DX003 (ip), vehicle: saline with Tween-80 89 % of control

CCCCCC(C)(C)N=C=S
inactive: [3] 100 % of control | [10] 96 % of control

O=[N+]([O-])c1ccc2nsnc2c1
inactive: [4] 103 % of control | [7] 103 % of control | [5] 106 % of control | [8] 114 % of control | [6] 107 % of control

C=C(C)C12CC(COC(=O)c3ccccc3)C34OC5(OC1C3C1OC1(CO)C(O)C1(O)C(OC(=O)c3ccccc3)C(C)C(C(C)CCCCCCC5O)C14)O2 (stereo not drawn)
inactive: endpoint: mean survival time, dose: 1.5 micrograms/kg/injection, schedule: Q01DX009 (ip), vehicle: saline 103 % of control | endpoint: mean survival time, dose: 3.1 micrograms/kg/injection, schedule: Q01DX009 (ip), vehicle: saline 98 % of control | endpoint: mean survival time, dose: 6.2 micrograms/kg/injection, schedule: Q01DX009 (ip), vehicle: saline 97 % of control | endpoint: mean survival time, dose: 12.5 micrograms/kg/injection, schedule: Q01DX009 (ip), vehicle: saline 98 % of control

CCOC(=O)c1cc(-c2ccccc2)nc2c(Cl)cc(Cl)cc12
inactive: [9] 94 % of control | endpoint: mean survival time, dose: 200.0 mg/kg/injection, schedule: Q01DX001 (ip), vehicle: saline 90 % of control | endpoint: mean survival time, dose: 400.0 mg/kg/injection, schedule: Q01DX001 (ip), vehicle: saline 96 % of control

CC(=O)C(CNCC(=O)O)(CNCC(=O)O)C(C)=O
inactive: endpoint: mean survival time, dose: 25.0 mg/kg/injection, schedule: Q04DX002 (ip), vehicle: saline with Tween-80 90 % of control | endpoint: mean survival time, dose: 50.0 mg/kg/injection, schedule: Q04DX002 (ip), vehicle: saline with Tween-80 94 % of control | [15] 94 % of control

COC(=N)CC(=O)C(C)(C)C
inactive: endpoint: mean survival time, dose: 100.0 mg/kg/injection, schedule: Q01DX001 (ip), vehicle: other 102 % of control | endpoint: mean survival time, dose: 200.0 mg/kg/injection, schedule: Q01DX001 (ip), vehicle: other 97 % of control | endpoint: mean survival time, dose: 400.0 mg/kg/injection, schedule: Q01DX001 (ip), vehicle: other 97 % of control

COc1cc(OC)c(NC(=O)Oc2ccc(C(C)(C)C)cc2Br)cc1Cl
inactive: [13] 97 % of control | [1] 102 % of control | [2] 94 % of control | [7] 93 % of control | [8] 86 % of control

Cc1cc(-n2cccc2)no1
inactive: [7] 98 % of control | [8] 107 % of control | [12] 94 % of control
